From patent US5703070A, “Indole, indazole and benzisoxazole compounds” (Adir et Compagnie, priority 1995, dated 1997)
Read-outs that look alike come from different tables or passages of the source.

Tests used:
[1] = target: 5-HT1A receptors (Rattus norvegicus, UniProt P19327); experiment: biochemical; assay type: binding; conditions: for D2 /5-HT1A: ratio of Ki values D2 / 5-HT1A
Description: (§1) The interaction of these compounds with various receptors was determined by using conventional binding studies, such as those described by M. J. Millan et at. […] The affinities of the compounds are expressed in Ki.

[2] = target: T1, 5-HT2C receptors (Sus scrofa, UniProt K7GSR7); experiment: biochemical; assay type: binding; conditions: Receptor profile Ki, 5-HT2C
T1 construct: from tissue; host or cells: pig choroid plexus (own knowledge of the cited method)
T1 sequence (K7GSR7 1-457): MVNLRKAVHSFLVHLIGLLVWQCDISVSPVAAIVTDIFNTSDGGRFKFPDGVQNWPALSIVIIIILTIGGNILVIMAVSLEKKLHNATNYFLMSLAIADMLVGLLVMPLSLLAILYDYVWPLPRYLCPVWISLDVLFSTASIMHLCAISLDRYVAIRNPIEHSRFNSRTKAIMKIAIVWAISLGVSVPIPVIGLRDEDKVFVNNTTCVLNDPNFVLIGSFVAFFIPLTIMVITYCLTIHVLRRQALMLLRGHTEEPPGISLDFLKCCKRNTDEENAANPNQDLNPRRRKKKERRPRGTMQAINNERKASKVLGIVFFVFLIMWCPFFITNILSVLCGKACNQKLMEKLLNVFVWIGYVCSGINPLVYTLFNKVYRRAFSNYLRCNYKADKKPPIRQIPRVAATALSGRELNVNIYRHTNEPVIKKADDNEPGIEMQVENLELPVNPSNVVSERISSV
Description: as §1

[3] = test system: 5-HT2C receptors; experiment: biochemical; assay type: binding; conditions: ratio of Ki values D2 / 5-HT2C
Description: as §1

[4] = target: T2, D2 receptors (Rattus norvegicus, UniProt P61169); experiment: biochemical; assay type: binding
T2 construct: from tissue; host or cells: rat striatum (own knowledge of the cited method)
T2 sequence (P61169 whole entry): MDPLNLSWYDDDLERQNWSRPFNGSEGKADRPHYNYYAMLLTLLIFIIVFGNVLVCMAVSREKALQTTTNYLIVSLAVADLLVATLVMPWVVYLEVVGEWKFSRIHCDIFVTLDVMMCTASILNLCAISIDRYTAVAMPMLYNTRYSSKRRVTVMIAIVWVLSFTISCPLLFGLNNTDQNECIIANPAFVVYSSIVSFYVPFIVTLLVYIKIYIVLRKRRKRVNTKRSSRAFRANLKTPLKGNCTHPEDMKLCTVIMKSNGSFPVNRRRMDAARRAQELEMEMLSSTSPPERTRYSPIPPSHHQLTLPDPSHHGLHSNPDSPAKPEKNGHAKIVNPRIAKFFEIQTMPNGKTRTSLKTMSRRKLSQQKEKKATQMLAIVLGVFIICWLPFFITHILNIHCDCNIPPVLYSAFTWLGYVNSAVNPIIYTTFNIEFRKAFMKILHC
Description: as §1

[5] = target: T3, 5-HT2A receptors (Rattus norvegicus, UniProt P14842); experiment: Conventional binding studies, receptor profile: 5-HT2A; conditions: for Ki: Receptor profile Ki, 5-HT2A; for D2 /5-HT2A: ratio of Ki values D2 / 5-HT2A
T3 construct: from tissue; host or cells: rat frontal cortex (own knowledge of the cited method)
T3 sequence (P14842 whole entry): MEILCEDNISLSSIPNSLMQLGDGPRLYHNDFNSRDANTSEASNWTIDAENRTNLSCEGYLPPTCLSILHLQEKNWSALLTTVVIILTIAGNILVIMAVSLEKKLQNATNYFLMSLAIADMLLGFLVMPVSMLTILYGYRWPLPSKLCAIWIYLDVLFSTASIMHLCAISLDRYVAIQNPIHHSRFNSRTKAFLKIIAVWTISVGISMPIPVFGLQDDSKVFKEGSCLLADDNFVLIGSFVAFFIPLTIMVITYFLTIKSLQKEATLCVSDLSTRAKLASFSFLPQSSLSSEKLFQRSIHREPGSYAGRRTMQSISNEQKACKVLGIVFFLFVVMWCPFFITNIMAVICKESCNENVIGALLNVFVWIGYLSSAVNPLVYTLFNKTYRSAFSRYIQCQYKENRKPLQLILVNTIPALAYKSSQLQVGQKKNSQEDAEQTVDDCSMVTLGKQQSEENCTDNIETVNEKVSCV
Description: as §1

[6] = in vivo; conditions: rat, sc
[7] = test system: mesolimbic dopaminergic pathways; experiment: Verticalization test with apomorphine in mice (antipsychotic properties); conditions: for ED50: Mus musculus, sc; for Verticalization (Apomorphine) ID50: mice
[8] = test system: nigrostriatal dopaminergic transmission; conditions: background, literature; cited from earlier work
[9] = test system: schizophrenia; conditions: cited from earlier work; for extrapyramidal syndrome: in vivo
[10] = test system: nigrostriatal dopaminergic transmission; experiment: Catalepsy in rats (extrapyramidal potential); conditions: for ED50 /ID50 Ratio: catalepsy ED50 (rats) / verticalization ID50 (mice), hydrochloride
[11] = read-out: Receptor profile Ki, 5-HT1A
[12] = read-out: Receptor profile Ki, D2
[13] = read-out: Verticalization (Apomorphine) ID50, mice, s.c. 30 min before test, apomorphine 0.75 mg/kg s.c.
[14] = read-out: Verticalization (Apomorphine) ID50
[15] = s.c. 30 min before test, apomorphine 0.75 mg/kg s.c., hydrochloride

Chain of 5-HT1A receptors (P19327 whole entry): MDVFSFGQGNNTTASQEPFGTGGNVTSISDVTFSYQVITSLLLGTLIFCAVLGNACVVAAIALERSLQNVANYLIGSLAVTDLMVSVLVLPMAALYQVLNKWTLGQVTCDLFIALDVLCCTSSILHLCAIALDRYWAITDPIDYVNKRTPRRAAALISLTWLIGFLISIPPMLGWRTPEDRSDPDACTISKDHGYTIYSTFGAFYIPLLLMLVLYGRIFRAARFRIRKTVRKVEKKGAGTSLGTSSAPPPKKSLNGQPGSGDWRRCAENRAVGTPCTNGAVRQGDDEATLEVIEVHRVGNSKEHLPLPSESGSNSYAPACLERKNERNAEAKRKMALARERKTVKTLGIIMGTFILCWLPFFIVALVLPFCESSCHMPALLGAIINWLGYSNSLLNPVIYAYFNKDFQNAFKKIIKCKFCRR

SMILES | D2 /5-HT1A [1] | Ki [1, 11] | Ki [2] | D2 /5-HT2C [3] | Ki [4, 12] | Ki [5] | D2 /5-HT2A [5] | ED50 at 0.5 h [6] | selectivity ratio [6] | ED50 [7, 13] | also measured
COc1ccc2[nH]cc(CCCN3CCC(CC(=O)c4ccc(F)cc4)C3)c2c1.Cl (racemic) [Ex. 3, 3-{3-[3-(4-Fluorobenzoylmethyl)pyrrolidin-1-yl]propyl}-5-methoxyindole hydrochloride] | 5.2 | 1 nM | 3.3 nM | 1.6 | 5.2 nM | 1 nM | 5.2 | > 40 mg/kg | > 266 | 0.15 mg/kg | 
CN1CCN(C2=Nc3cc(Cl)ccc3Nc3ccccc32)CC1 [Clozapine] |  |  |  |  |  |  |  | > 40 mg/kg |  |  | cataleptogenic effect [8]: absence of cataleptogenic effect; toxicity ([9]; general treatment of schizophrenic conditions): due to its toxicity, clozapine cannot be envisaged in the general treatment of schizophrenic conditions; extrapyramidal syndrome [9]: virtually no extrapyramidal syndrome; Verticalization (Apomorphine) ID50 ([7]; s.c. 30 min before test, apomorphine 0.75 mg/kg s.c.): 2.2 mg/kg/S.C.
COc1ccc2[nH]cc(CCN3CCC(CC(=O)c4ccc(F)cc4)C3)c2c1.Cl (centres unmarked) [Ex. 1, 3-{2-[3-(4-Fluorobenzoylmethyl)pyrrolidin-1-yl]ethyl}-5-methoxyindole hydrochloride] | 183 |  | 50 nM | 22 |  | 1.6 nM | 69 | > 40 mg/kg | > 129 |  | Ki ([1]; Receptor profile Ki, 5-HT1A): 0.6 nM; Ki [4]: 110 nM; ED50 [7, 14]: 0.31 mg/kg
COc1ccc2c(c1)c(CCN1CCC(CC(=O)c3ccc(F)cc3)C1)cn2C.Cl (centres unmarked) [Ex. 2, 1-Methyl-3-{2-[3-(4-fluorobenzoylmethyl)pyrrolidin-1-yl]ethyl}-5-methoxyindole hydrochloride] | 0.9 | 141 nM | 16 nM | 8.3 | 132 nM | 1.3 nM | 101 | > 40 mg/kg | > 32 | 1.25 mg/kg | 
COc1ccc2[nH]cc(CCCN3CCC(CC(=O)c4ccc(F)cc4)C3)c2c1.Cl (centres unmarked) [Ex. 4, 3-{3-[3-(4-fluorobenzoylmethyl)pyrrolidin-1-yl]propyl}-5-methoxyindole hydrochloride] |  | 1.1 nM | 4 nM |  | 6.3 nM | 1.2 nM |  | > 40 mg/kg |  |  | D2 /5-HT1A ([1]; hydrochloride): 5.7; D2 /5-HT2C ([3]; hydrochloride): 1.6; D2 /5-HT2A ([5]; hydrochloride): 5.2; ED50 /ID50 Ratio [10]: > 133; Verticalization (Apomorphine) ID50 [7, 15]: 0.3 mg/kg/S.C.
COc1ccc2[nH]cc(CCCN3CCC(CC(=O)c4ccc(F)cc4)C3)c2c1.Cl (centres unmarked) [Ex. 5, 3-{3-[3-(4-fluorobenzoylmethyl)pyrrolidin-1-yl]propyl}-5-methoxyindole hydrochloride] |  | 0.4 nM | 3.8 nM |  | 7.1 nM | 1.7 nM |  |  |  |  | D2 /5-HT1A ([1]; hydrochloride): 17.8; D2 /5-HT2C ([3]; hydrochloride): 1.9; D2 /5-HT2A ([5]; hydrochloride): 4.2; ED50 /ID50 Ratio [10]: > 307; Induction of catalepsy ED50 ([10]; rats, s.c. 30 min before test, dose inducing catalepsy for mean 15 seconds): > 40.0 mg/kg/S.C.; Verticalization (Apomorphine) ID50 [7, 15]: 0.13 mg/kg/S.C.
COc1ccc2c(c1)c(CCCN1CCC(CC(=O)c3ccc(F)cc3)C1)cn2C.Cl (centres unmarked) [Ex. 6, 1-Methyl-3-{3-[3-(4-fluorobenzoylmethyl)pyrrolidin-1-yl]propyl}-5-methoxyindole hydrochloride] | 0.4 | 39 nM | 17 nM | 0.9 | 15.4 nM | 4.3 nM | 3.6 |  |  |  | 
COc1ccc2[nH]cc(CCCN3CCCC(C(=O)c4ccc(F)cc4)CC3)c2c1.Cl (centres unmarked) [Ex. 7, 3-{3-[4-(4-Fluorobenzoyl)perhydroazepin-1-yl]propyl}-5-methoxyindole hydrochloride] | 62 | 0.7 nM | 117 nM | 0.4 | 43.5 nM | 2.7 nM | 1.6 | > 40 mg/kg | > 80 | 0.5 mg/kg | 
Cl.O=C(CC1CCN(CCCc2c[nH]c3ccc(F)cc23)C1)c1ccc(F)cc1 (centres unmarked) [Ex. 8, 3-{3-[3-(4-Fluorobenzoylmethyl)pyrrolidin-1-yl]propyl}-5-fluoroindole hydrochloride] | 0.8 | 12.3 nM | 19 nM | 0.5 | 9.5 nM | 6.6 nM | 1.4 | > 40 mg/kg | > 80 | 0.5 mg/kg | 
COc1ccc2[nH]cc(CCCN3CCC(Cc4noc5cc(F)ccc45)C3)c2c1.Cl (centres unmarked) [Ex. 9, 6-Fluoro-3-{1-[3-(5-methoxyindol-3-yl)propyl]pyrrolidin-3-ylmethyl}-1,2-benzisoxazole hydrochloride] | 143 | 0.7 nM | 7.9 nM | 13 | 98 nM | 3.2 nM | 31 | > 40 mg/kg | > 40 | 1 mg/kg | 
O=C(CCCN1CCC(O)(c2ccc(Cl)cc2)CC1)c1ccc(F)cc1 [Haloperidol] |  |  |  |  |  |  |  | 0.14 mg/kg |  |  | extrapyramidal syndrome [9]: cause an extrapyramidal syndrome of Parkinsonian type; treatment of productive symptoms ([9]; such as fantasizing and hallucinations): fairly well; effectiveness with respect to deficiency symptoms ([9]; such as social withdrawal): very low; ED50 [7, 14]: 0.01 mg/kg
COc1ccc2[nH]cc(CCCN3CCC(C(=O)c4ccc(F)cc4)CC3)c2c1.Cl [Ref. A, 3-{3-[4-(4-Fluorobenzoyl)piperidin-1-yl]propyl}-5-methoxyindole hydrochloride, reference compound] | 2 | 5.6 nM | 98 nM | 0.1 | 11 nM | 8.5 nM | 1.3 | 1.4 mg/kg | 14 | 0.1 mg/kg | 
